Where two headings read alike, the source gives them in different places.
Key:
[1] = test system: vancomycin-resistant E. faecalis (VRE, ATCC 700802); format: cell-based; details: lowest concentration that completely inhibits growth, repeated three times
Method: (§1) Having obtained all compounds, their antibacterial efficacy was subsequently evaluated by measuring the minimum inhibitory concentration (MIC). Three significant resistant bacteria, including methicillin-resistant Staphylococcus aureus (MRSA) (ATCC 33591), Staphylococcus epidermidis (MRSE) (RP62A), and vancomycin-resistant E. faecalis (VRE) (ATCC 700802), were chosen for our studies. Meanwhile, hemolytic activity (HC50) was also measured to assess the selectivity of these compounds toward bacteria and blood cells. […] Importantly, HC50 of almost all compounds are equal or more than 250 μg/mL. […] This is consistent with our previous findings that significant hydrophobicity, particularly two long alkyl tails, could form hydrophobic clusters that prevent the formation of amphipathic structures necessary for antimicrobial activity (Li et al., [2014b]; Singh et al., [2018]). […] MICs of 10–14 unveiled that proper bulky hydrophobic groups were beneficial in the design of bactericide. These five compounds have the same (3r,5r,7r)-1-methyladamantane side chain but different tails, including C9, as well as C11 alkyl chain, ethylbenzene, and (3r,5r,7r)-1-methyladamantane. Among them, 10, which had no tail, was the best toward MRSA and MRSE, with the MICs of 5 μg/mL and 2 μg/mL respectively. […] Compounds 7 and 8 also shared a similar trend. It appears that compounds with bulky groups have better activity, due to the lager molecular volume or shorter molecular length of these bulky groups. Therefore, the selection of proper hydrophobic bulky groups when designing HDP-mimicking agents is considerably crucial (Wu et al., [2012]; Teng et al., [2016a]).
(§2) The antimicrobial assay of the compounds was conducted on the following three bacteria strains: methicillin-resistant S.aureus (MRSA, ATCC 33591), methicillin-resistant S. epidermidis (MRSE, RP62A), and vancomycin-resistant E. faecalis (VRE, ATCC 700802). The procedures were followed as reported previously. […] All measurements were repeated at least three times with duplicates each time.

[2] = test system: methicillin-resistant S. aureus (MRSA, ATCC 33591); format: cell-based, Staphylococcus aureus; details: lowest concentration that completely inhibits growth, repeated three times
Method: as §1, §2

[3] = test system: red blood cell (RBC) of mice; experiment: Hemolysis study (HC50); format: cell-based
Method: Fresh red blood cell (RBC) of mice was collected by centrifuge with the speed of 500 g for 10 mins until the supernatant is clear. Then, the RBC was diluted with PBS for 20-fold. After adding 50 μL PBS in each vial on 96 plates, 1 mg/mL compounds were serial diluted until reaching the lowest concentration 1.9 μg/mL. Diluted RBC was added into each vial and incubated at 37°C for 1 h. Then, plates were centrifuged at 2,301 g (3,500 rpm) for 10 mins. 30 uL supernatant in each vial was added into 100 μL PBS and read Biotek Synergy HT plate reader at 540 nm. The hemolytic activity was calculated by the formula % hemolysis = (Abssample-AbsPBS) / (AbsTriton-AbsPBS) × 100%. 1% Triton X-100 were used as the positive control and 1 × PBS buffer was used as the negative control.

[4] = test system: methicillin-resistant S. epidermidis (MRSE, RP62A); format: cell-based, Staphylococcus epidermidis; details: lowest concentration that completely inhibits growth, repeated three times
Method: as §1, §2

[5] = test system: MRSA; experiment: TEM study; format: cell-based, Staphylococcus aureus; details: MRSA 10^6 CFU/mL, 6 μg/mL, 2 h
Method: Transmission electron microscopy (TEM) is a straightforward method to visualize the interruptive effect of compounds on the membrane of bacteria. Mid log phase MRSA without the treatment of compound 2 had intact membrane (Figure 5A).
After being incubated to mid log phase, MRSA(10^6 CFU/mL) was mixed with 6 μg/mL compound 2 for 2 h. Then the bacteria cells were collected and washed with PBS and DI water. Following that, bacteria was resuspended in deionized water. Control bacterial samples were obtained without adding drugs. Above samples were applied to TEM grids by 5 μL bacteria solution, and the grids were allowed to dry in vacuum oven at the temperature of 45°C for 45 seconds. After being dried, TEM images were obtained on a FEI Morgagni 268D TEM with an Olympus MegaView III camera at 60 kV on the microscope. The microscope used AnalySiS software to run the camera.

[6] = test system: MRSA; experiment: Drug resistance study, 20 passages; format: cell-based, Staphylococcus aureus
Method: Drug resistance has already been recognized as one of the fastest growing threats all over the world. […] The MIC of compound 2 was determined daily, and then the bacteria suspension with half of the MIC was diluted to 10^6 CFU/mL and incubated with compound to test its activity until 20 passages had been reached.
The experiment was carried out by following our previously reported protocol (Su et al., [2017]; Niu et al., [2018]). The study was conducted for 20 passages.

[7] = test system: MRSA; experiment: Fluorescence microscopy, DAPI and PI; format: cell-based, Staphylococcus aureus; details: 6 μg/mL, 2 h
Method: Experiments of fluorescent microscopy is also a broadly used method to determine the integrity of bacteria membrane. Propidium iodide (PI) and 4′,6-diamidino-2-henylindole (DAPI) are commercially available dyes that stain dead or injured cells with compromised membrane and all cells irrespective of their viability, respectively. The efficacy of compound 2 to interrupt the bacterial membrane was evaluated by these two dyes.
Fluorescent dyes propidium iodide (PI) and 4′,6′-diamidino-2-phenylindole dihydrochloride (DAPI) can be used to distinguish the viable cell from the dead cells. After obtaining the mid-logarithmic phase bacteria solution as above, the bacteria solution was diluted 100 times and mixed with compound 2 at the concentration of 6 μg/mL. Then the mixture was incubated 2 h and centrifuged at 1,690 g (3,000 rpm) for 15 min at 4°C to harvest the cells. After washing with PBS for 3 times, PI (5 μg/mL) and DAPI (10 μg/mL) was used to dye cells 20 min respectively. Controls were carried out without compounds. The bacterial cells were then visualized and analyzed by employing the LEICA DM 2000 optical microscope with an oil-immersion objective (40 ×). The experiment was repeated three times with duplicates each time.

[8] = test system: MRSA; experiment: Membrane depolarization study, DiSC3(5); format: cell-based, Staphylococcus aureus; details: MRSA 10^6 CFU/mL, 1 μM DiSC3(5), compound added after 30 min, ex 622 nm / em 670 nm
Text: HDPs are known to act on the bacterial membrane. As the mimics of HDPs, compounds 1–14 were also expected to kill bacteria through disintegrating the bacterial cell membrane. To this end, 3, 3′- Dipropylthiadicarbocyanine iodide [DiSC3(5)] was used as a fluorogenic probe to detect and measure changes in transmembrane potential. Briefly, fluorescence intensity is very weak when it accumulates on hyperpolarized membranes due to their self-quenching (Niu et al., [2018]). […] This method was used to initially determine the bacterial membrane permeability caused by the compound 2.
Mid log phase MRSA bacteria solution was obtained as above. Then, cells were collected and washed with 5 mM HEPES and 5 mM glucose respectively. 5 mM HEPES:5 mM glucose:100 mM KCl = 1:1:1 was used to resuspended bacteria cells (10^6 CFU/mL). Following that, 200 μL of bacterial suspension and 1 μM DiSC3(5) were included in a 96-well plate, and the fluorescence of the suspension was monitored at room temperature for 30 min at excitation wavelength of 622 nm and emission wavelength of 670 nm. After 30 min, compound 2 was added to the wells and the increased potential was monitored. The experiment was repeated three times with duplicates each time.

[9] = test system: MRSA; experiment: Time-kill kinetics; format: cell-based, Staphylococcus aureus
Method: Time-kill kinetic study of compound 2 were investigated. After being incubated from one colony in 4 mL TSB medium overnight at 37 °C while shaking, MRSA was diluted 2,500 times to another fresh 4 mL TSB solution and grew for 6~8 h to mid-logarithmic phase. Suspension [10^6 colony-forming units per milliliter (CFU/mL) according to the read of OD value] was made and then incubated with different concentration of 2 at 37°C for 10 min, 30 min, 60 min, 120 min respectively. The MRSA and drug mixture were diluted 10^2-fold and spread on the TSB agar plates. These plates were incubated at 37°C overnight. The numbers of colonies on each plate were transferred to lg[CFU/mL] and plotted against the incubation time. The experiment was repeated three times with duplicates each time.

[10] = mouse RBC in PBS, 37°C, 1 h, absorbance 540 nm, 1% Triton X-100 positive control

CCCCCCCCCCCCCCCC(=O)N(CC(=O)Nc1ccc(NC(=O)CN(C[C@@H](N)CCCCN)C(=O)CCCCCCCCCCCCCCC)cc1)C[C@@H](N)CCCCN [Compound 5, N,N'-((1,4-phenylenebis(azanediyl))bis(2-oxoethane-2,1-diyl))bis(N-(2,6-diaminohexyl)palmitamide)] was tested, and the “MIC VRE” value [1] was >25 mg/L, the “MIC MRSA” value [2] was >25 mg/L and the “Hemolysis (HC50)” value [3, 10] was >250 µg/mL. For the same compound, the “MIC MRSE” value [4] was >25 mg/L.

With CCCCCCCCCC(=O)N(CC(=O)Nc1ccc(NC(=O)CN(C[C@@H](N)CCCCN)C(=O)CCCCCCCCC)cc1)C[C@@H](N)CCCCN [Compound 2, N,N'-((1,4-phenylenebis(azanediyl))bis(2-oxoethane-2,1-diyl))bis(N-(2,6-diaminohexyl)decanamide)] the “TEM observation of treated MRSA” value [5] was “large amount of cell debris can be detected”, the “Change of MIC values after 20 passages” value ([6]; 20 passages at half of the MIC) was “almost unchanged” and the “DAPI / PI staining of treated MRSA” value [7] was “fluorescence could be detected in both channels”. The “DiSC3(5) fluorescence intensity after adding compound” value [8] was “fluorescence intensity increased dramatically”, the “Time-kill result at 6 μg/mL” value ([9]; MRSA 10^6 CFU/mL, 6 μg/mL, 37°C, up to 120 min) was “still colonies after 120 mins” and the “Time in which all bacteria were eradicated” value ([9]; MRSA 10^6 CFU/mL, 12 μg/mL, 37°C) was ≤ 120 min. The “Time in which all bacteria were eradicated” value ([9]; MRSA 10^6 CFU/mL, 24 μg/mL, 37°C) was ≤ 120 min and the “Time to eradicate MRSA” value ([9]; abstract statement, concentration not given) was ≤ 2 h.

In the case of CCn1cc(C(=O)O)c(=O)c2cc(F)c(N3CCNCC3)cc21 [norfloxacin, reference compound], the “Increase of MIC after 20 passages” value ([6]; 20 passages) is reported as 10 fold.

CCCCCCCCCC(=O)N[C@@H](CCCCN)CN(CC(=O)Nc1ccc(NC(=O)CN(C[C@H](CCCCN)NC(=O)CCCCCCCCC)C(=O)CC23CC4CC(CC(C4)C2)C3)cc1)C(=O)CC12CC3CC(CC(C3)C1)C2 [Compound 11, N,N'-((((1,4-phenylenebis(azanediyl))bis(2-oxoethane-2,1-diyl))bis ((2-((3r,5r,7r)-adamantan-1-yl)acetyl)azanediyl))bis(6-aminohexane-1,2-diyl))bis(decanamide)] was tested, and the “MIC VRE” value [1] was >25 mg/L, the “MIC MRSA” value [2] was >25 mg/L and the “Hemolysis (HC50)” value [3, 10] was >250 µg/mL. For the same compound, the “MIC MRSE” value [4] was >25 mg/L.

For “N-(2-(2-((1s,3s)-adamantan-1-yl)acetamido)-6-aminohexyl)-N-(2-((4-(2-(N-(2-(2-((3r,5r,7r)-adamantan-1-yl)acetamido)-6-aminohexyl) decanamido) acetamido) phenyl) amin)−2-oxoethyl)decanamide [Compound 7]”, the “MIC VRE” value [1] was 20 mg/L, the “MIC MRSA” value [2] was 10 mg/L and the “Hemolysis (HC50)” value [3] was 250 µg/mL. The “MIC MRSE” value [4] was 2 mg/L.

CCCCCCCCCCCCCC(=O)N(CC(=O)Nc1ccc(NC(=O)CN(C[C@@H](N)CCCCN)C(=O)CCCCCCCCCCCCC)cc1)C[C@@H](N)CCCCN [Compound 4, N,N'-((1,4-phenylenebis(azanediyl))bis(2-oxoethane-2,1-diyl))bis(N-(2,6-diaminohexyl)tetradecanamide)] was tested, and the “MIC VRE” value [1] was >25 mg/L, the “MIC MRSA” value [2] was >25 mg/L and the “Hemolysis (HC50)” value [3, 10] was >250 µg/mL. For the same compound, the “MIC MRSE” value [4] was >25 mg/L.
